{"source": "patent US20130316000A1", "about": "“COMPOSITIONS AND METHODS FOR TREATMENT OF IRRITABLE BOWEL SYNDROME WITH 5-AMINOSALICYLATE” (priority 2012, published 2013)", "origin": "cited, not measured here"}
{"smiles": "Nc1ccc(O)c(C(=O)O)c1", "note": "[mesalamine, 5-aminosalicylic acid]", "values": [{"measurement": "concentration detected in human breast milk", "result": "low concentrations"}]}
